system: J774 macrophage cell line; test: Alamar Blue macrophage J774 viability assay; format: cell-based; settings: Mus musculus, J774, 72 h, 72 hours culture with compound, Alamar Blue, read-out: IC50 (J774)
Protocol: Initial screening of candidate compounds was performed using viability assays, on cultures of the macrophage cell line J774, which have been used before as a model system for osteoclast survival (see, e.g., Luckman et al., 1998). The assays are based on the survival of the J774 macrophage cell line; macrophages are closely related to osteoclasts, and contain similar high levels of esterase activity.
J774 cells were plated at 10^4 cells per well in 150 μL αMEM (α Modified Eagle Medium) in 96-well plates and grown overnight. The next day, compounds were added to the cultures, and culture was continued for another 72 hours. At the end of the culture period cell survival was determined using an Alamar Blue assay as previously described (see, e.g., Nociari et al., 1998).
Alamar Blue is an oxidation-reduction sensitive indicator. The dye itself is in the oxidised state, which is blue and non-fluorescent. The dye can accept electrons from reducing species, such as NADPH and FADH, to form a reduced dye species, which is red and fluorescent. Thus the transformation from oxidised form to reduced form can be measured by fluorimetric or colourimetric means. For fluorescence measurements, 530-560 nm excitation and 590 nm emission wavelengths are typically used. For colourimetric measurements, absorbance is measured at 570 nm (reduced form) and 600 nm (oxidised form) and a simple calculation performed to determine the relative quantities of the two species.
A high ratio of the reducing species, NADPH and FADH, to the corresponding oxidised species, NADP and FAD, is an indicator that cells are proliferating and viable. A low ratio indicates cells that are quiescent or non-viable.
Briefly, Alamar Blue (Biosource International) was added undiluted to the each well (1:10 v/v, 15 μL). The plate was incubated at 37° C. for 3-4 hours and the fluorescence was measured at 570 nm, with a 25 nm bandwidth. A high reading indicated cells with normal viability, and a low reading indicates cells that have been damaged and are no longer proliferating normally. The controls gave a high fluorescence reading, indicating a high number of live, healthy cells. A potent test compound gave a low fluorescence reading. The average results for each test compound (n=5) were expressed as a percent (%) of the average control value.
Addition of Compounds. All of the compounds studied were made up as 100 mM solutions in DMSO. These stock solutions were then diluted 100 or 1000× in culture medium (αMEM). From these 1 mM or 100 μM solutions, convenient quantities (3-15 μL) were added directly to the wells so as to give the desired final compound concentration.

| SMILES | IC50 |
| --- | --- |
| O=S(=O)(NCCCCO)c1ccc(-c2ccccc2)cc1 [ABD-155, Biphenyl-4-sulfonic acid-(4-hydroxybutyl)-amide] | 18 ± 3 µM |
| O=S(=O)(NCCCCCO)c1ccc(-c2ccccc2)cc1 [ABD-180, Biphenyl-4-sulfonic acid-(5-hydroxypentyl)-amide] | 20 ± 3 µM |
| O=S(=O)(NCCCCO)c1ccc(-c2ccc(F)cc2)cc1 [ABD-200, 4′-Fluorobiphenyl-4-sulfonic acid-(4-hydroxybutyl)-amide] | 8 ± 2.5 µM |
| O=S(=O)(NCCCCO)c1ccc(-c2ccc(Br)cc2)cc1 [ABD-201, 4′-Bromobiphenyl-4-sulfonic acid-(4-hydroxybutyl)-amide] | 9 ± 2 µM |
| O=[N+]([O-])c1cccc(-c2ccc(S(=O)(=O)NCCCCO)cc2)c1 [ABD-226, 3′-Nitrobiphenyl-4-sulfonic acid-(4-hydroxybutyl)-amide] | 33 ± 3 µM |
| O=[N+]([O-])c1ccccc1-c1ccc(S(=O)(=O)NCCCCO)cc1 [ABD-227, 2′-Nitrobiphenyl-4-sulfonic acid-(4-hydroxybutyl)-amide] | 2 ± 0.5 µM |
| O=S(=O)(NCCCCO)c1ccc(-c2ccc(C(F)(F)F)cc2)cc1 [ABD-246, 4′-Trifluoromethylbiphenyl-4-sulfonic acid-(4-hydroxybutyl)-amide] | 5 ± 1 µM |
| O=S(=O)(NCCCCCO)c1ccc(-c2ccc(F)cc2F)cc1 [ABD-248, 2′,4′-Difluorobiphenyl-4-sulfonic acid-(5-hydroxypentyl)-amide] | 4.5 ± 1 µM |
| O=S(=O)(NCCCCCO)c1ccc(-c2ccc(F)c(F)c2)cc1 [ABD-257, 3′,4′-Difluorobiphenyl-4-sulfonic acid-(5-hydroxypentyl)-amide] | 16 ± 3 µM |
| CSc1ccc(-c2ccc(S(=O)(=O)NCCCCO)cc2)cc1 [ABD-258, 4′-Methylthiobiphenyl-4-sulfonic acid-(4-hydroxybutyl)-amide] | 35 ± 6 µM |
| Cc1ccc(-c2ccc(S(=O)(=O)NCCCCCO)cc2)cc1 [ABD-260, 4′-Methylbiphenyl-4-sulfonic acid-(5-hydroxypentyl)-amide] | 12 ± 2 µM |
| CC(=O)c1ccc(-c2ccc(S(=O)(=O)NCCCCCO)cc2)cc1 [ABD-261, 4′-Acetylbiphenyl-4-sulfonic acid-(5-hydroxypentyl)-amide] | 11 ± 2 µM |
| N#Cc1ccc(-c2ccc(S(=O)(=O)NCCCCCO)cc2)cc1 [ABD-262, 4′-Cyanobiphenyl-4-sulfonic acid-(5-hydroxypentyl)-amide] | 12 ± 2 µM |
| Nc1ccccc1-c1ccc(S(=O)(=O)NCCCCO)cc1 [ABD-263, 2′-Aminobiphenyl-4-sulfonic acid-(4-hydroxybutyl)-amide] | 24 ± 3 µM |
| O=S(=O)(NCCCCO)c1ccc(-c2ccc(Br)cc2F)cc1 [ABD-265, 4′-Bromo-2′-fluorobiphenyl-4-sulfonic acid-(4-hydroxybutyl)-amide] | 3 ± 1 µM |
| COc1ccccc1-c1ccc(S(=O)(=O)NCCCCCO)cc1 [ABD-267, 2′-Methoxybiphenyl-4-sulfonic acid-(5-hydroxypentyl)-amide] | 31 ± 4 µM |

| SMILES | IC50 |
| --- | --- |
| O=C(O)c1ccc(-c2ccc(S(=O)(=O)NCCCCCO)cc2)cc1 [ABD-271, 4′-Carboxybiphenyl-4-sulfonic acid-(5-hydroxypentyl)-amide] | 33 ± 3 µM |
| O=S(=O)(NCCCCO)c1ccc(-c2ccccc2I)cc1 [ABD-275, 2′-Iodobiphenyl-4-sulfonic acid-(4-hydroxybutyl)-amide] | 5.5 ± 1.5 µM |
| CN(C)c1ccc(-c2ccc(S(=O)(=O)NCCCCCO)cc2)cc1 [ABD-276, 4′-Dimethylaminobiphenyl-4-sulfonic acid-(5-hydroxypentyl)-amide] | 32 ± 3 µM |
| O=S(=O)(NCCCCCO)c1ccc(-c2ccc(O)cc2)cc1 [ABD-277, 4′-Hydroxybiphenyl-4-sulfonic acid-(5-hydroxypentyl)-amide] | 21 ± 3 µM |
| O=S(=O)(NCCCCCO)c1ccc(-c2ccc(-c3ccccc3)cc2)cc1 [ABD-279, p-Terphenyl-4-sulfonic acid-(5-hydroxypentyl)-amide] | 33 ± 5 µM |
| O=S(=O)(NCCCCCO)c1ccc(-c2ccccc2C(F)(F)F)cc1 [ABD-284, 2′-Trifluoromethylbiphenyl-4-sulfonic acid-(5-hydroxypentyl)-amide] | 6 ± 1.5 µM |
| O=S(=O)(NCCCCO)c1ccc(-c2ccc(C(F)(F)F)cc2)c(F)c1 [ABD-294, 2-Fluoro-4′-trifluoromethylbiphenyl-4-sulfonic acid-(4-hydroxybutyl)-amide] | 5 ± 1 µM |
| CCOc1ccc(-c2ccc(S(=O)(=O)NCCCCCO)cc2)cc1 [ABD-297, 4′-Ethoxybiphenyl-4-sulfonic acid-(5-hydroxypentyl)-amide] | 35 ± 5 µM |
| O=S(=O)(NCCCCO)c1ccc(-c2ccc(C(F)(F)F)cc2)cc1F [ABD-302, 3-Fluoro-4′-trifluoromethylbiphenyl-4-sulfonic acid-(4-hydroxybutyl)-amide] | 5.5 ± 1.5 µM |
| O=S(=O)(NCCCCO)c1ccc(-c2ccc(OC(F)(F)F)cc2)cc1 [ABD-306, 4′-Trifluoromethoxybiphenyl-4-sulfonic acid-(4-hydroxybutyl)-amide] | 8 ± 1 µM |
| Cc1cccc(-c2ccc(S(=O)(=O)NCCCCO)cc2)c1 [ABD-308, 3′-Methylbiphenyl-4-sulfonic acid-(4-hydroxybutyl)-amide] | 28 ± 3 µM |
| O=S(=O)(NCCCCO)c1ccc(-c2ccccc2)cc1C(F)(F)F [ABD-310, 3-Trifluoromethylbiphenyl-4-sulfonic acid-(4-hydroxybutyl)-amide] | 4.5 ± 1 µM |
| Cc1cc(S(=O)(=O)NCCCCO)ccc1-c1ccc(F)cc1 [ABD-320, 4′-Fluoro-2-methylbiphenyl-4-sulfonic acid-(4-hydroxybutyl)-amide] | 2.5 ± 0.2 µM |
| O=S(=O)(NCCCCO)c1ccc(-c2ccc(F)cc2F)cc1Cl [ABD-325, 3-Chloro-2′,4′-difluoro-biphenyl-4-sulfonic acid-(4-hydroxybutyl)-amide] | 2.5 ± 0.5 µM |
| O=S(=O)(NCCCCO)c1ccc(-c2ccc(F)cc2F)cc1OC(F)(F)F [ABD-360, 2′,4′-Difluoro-3-trifluoromethoxybiphenyl-4-sulfonic acid-(4-hydroxybutyl)-amide] | 1 ± 0.3 µM |
| O=[N+]([O-])c1ccccc1-c1ccc(S(=O)(=O)NCCCCO)c(C(F)(F)F)c1 [ABD-365, 2′-Nitro-3-trifluoromethylbiphenyl-4-sulfonic acid-(4-hydroxybutyl)-amide] | 0.3 ± 0.1 µM |

same assay, conditions: Mus musculus, J774, 72 h, after 72 hours exposure, FIG. 1, read-out: IC50 against J774 macrophages (FIG. 1)

| SMILES | IC50 |
| --- | --- |
| O=S(=O)(NCCCCO)c1ccc(-c2ccccc2)cc1 [ABD-155, Biphenyl-4-sulfonic acid-(4-hydroxybutyl)-amide] | < 20 µM |

system: osteoblasts; test: Alamar Blue mouse osteoblast assay; format: cell-based; settings: osteoblast survival, after 72 hours exposure, FIG. 1, read-out: IC50 against osteoblasts (FIG. 1)
Protocol: Osteoblasts were isolated as described above and plated at 10^4 cells/well in 96-well plates in 100 μL of […]MEM supplemented with 10% FCS and antibiotics. Test compounds were added after 24 hours and left for 72 hours. Cell viability was assessed using the Alamar Blue assay as described for J774 macrophages. Alamar Blue (Biosource International) was added undiluted to each well (1:10 v/v, 10 μL). The plate was incubated at 37° C. for 3 to 4 hours and the fluorescence was measured at 570 nm, with a 25 nm bandwidth.
Osteoblast Isolation. Briefly, osteoblasts were isolated from the calvarial bones of 2-day-old mice by sequential collagenase digestion (type I collagenase, Sigma) and cultured in αMEM supplemented with 10% FCS (foetal calf serum) and penicillin and streptomycin at 37° C. in 5% CO2.
More specifically, osteoblasts were obtained from a collagenase digestion of the calvaria (skull bones) of 2-3 day old neo-natal C57/bl6 mice. At this stage in their development these are soft and easily removed. The calvaria from 5-6 mice were carefully dissected and washed in HBSS (Hank's balanced saline solution). The calvaria were placed in a 15 mL tube and shaken at 37° C. in 4 mL collagenase (10 mg/ml) for 10 minutes. This removes the excess unwanted tissue. The liquid was disposed of and a further 4 mL collagenase (10 mg/ml) added to the tube. […]

| SMILES | IC50 |
| --- | --- |
| O=S(=O)(NCCCCO)c1ccc(-c2ccccc2)cc1 [ABD-155, Biphenyl-4-sulfonic acid-(4-hydroxybutyl)-amide] | > 100 µM |
